Measurements taken from ChEMBL document CHEMBL5365540, “Structure-activity relationship studies and biological properties evaluation of peptidic NRP-1 ligands: Investigation of N-terminal cysteine importance” (Bioorg Med Chem, 2023).
pIC50: −log10 of the molar value. The source made the active and inactive calls. The calls are words filed in the database; no cut-off is given here. Where a SMILES comes first, the peptide text is derived from it.

Tests used:
[1] = Stability in human serum assessed as parent compound remaining measured after 24 hrs by LC-SWATH-MS analysis; type: ADME, cell-free; details: read-out: Stability
[2] = Stability in human serum assessed as parent compound remaining measured after 8 hrs by LC-SWATH-MS analysis; type: ADME, cell-free; details: read-out: Stability
VEGA-NRP1 = VEGA-NRP1 (Homo sapiens, UniProt O14786); experiment: Inhibition of human biotinylated-VEGFA165 binding to recombinant human NRP-1 measured after 2 hrs by chemiluminescent based ELISA; type: protein assay; details: for IC50: read-out: pIC50 (converted); for pIC50: read-out: IC50
MDA-MB-231 [3] = experiment: Increase in NRP-1 expression in human MDA-MB-231 cell membrane at 72 uM preincubated for 15 mins at 4 degC followed by compound washout and further incubated for 5 mins with subsequent addition of compound at 37 degC by FITC-streptavidin staining based flow cytometry analysis; type: functional; details: time 20.0 min
[4] = target: VEGFR2-VEGA (Homo sapiens) (UniProt P15692+P35968); experiment: Inhibition of human biotinylated-VEGFA165 binding to recombinant human VEGFR2 measured after 2 hrs by chemiluminescent based ELISA; type: protein-complex assay
NRP2-VEGA = target: T1, NRP2-VEGA (Homo sapiens, UniProt O60462+P15692); experiment: Inhibition of human biotinylated-VEGFA165 binding to recombinant human NRP-2 measured after 2 hrs by chemiluminescent based ELISA; type: protein-complex assay; details: for pIC50: read-out: IC50
T1 sequence (P15692 whole entry): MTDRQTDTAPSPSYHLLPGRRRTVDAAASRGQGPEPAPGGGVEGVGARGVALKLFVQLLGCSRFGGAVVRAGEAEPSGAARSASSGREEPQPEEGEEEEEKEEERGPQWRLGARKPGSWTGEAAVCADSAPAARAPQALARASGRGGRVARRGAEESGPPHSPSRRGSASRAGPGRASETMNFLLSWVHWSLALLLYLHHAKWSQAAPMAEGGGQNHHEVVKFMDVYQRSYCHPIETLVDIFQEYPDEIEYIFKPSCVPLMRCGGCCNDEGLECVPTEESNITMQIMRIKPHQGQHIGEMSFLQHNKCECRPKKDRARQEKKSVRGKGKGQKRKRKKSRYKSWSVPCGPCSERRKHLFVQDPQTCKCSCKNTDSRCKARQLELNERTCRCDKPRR
T1 sequence (O60462 whole entry): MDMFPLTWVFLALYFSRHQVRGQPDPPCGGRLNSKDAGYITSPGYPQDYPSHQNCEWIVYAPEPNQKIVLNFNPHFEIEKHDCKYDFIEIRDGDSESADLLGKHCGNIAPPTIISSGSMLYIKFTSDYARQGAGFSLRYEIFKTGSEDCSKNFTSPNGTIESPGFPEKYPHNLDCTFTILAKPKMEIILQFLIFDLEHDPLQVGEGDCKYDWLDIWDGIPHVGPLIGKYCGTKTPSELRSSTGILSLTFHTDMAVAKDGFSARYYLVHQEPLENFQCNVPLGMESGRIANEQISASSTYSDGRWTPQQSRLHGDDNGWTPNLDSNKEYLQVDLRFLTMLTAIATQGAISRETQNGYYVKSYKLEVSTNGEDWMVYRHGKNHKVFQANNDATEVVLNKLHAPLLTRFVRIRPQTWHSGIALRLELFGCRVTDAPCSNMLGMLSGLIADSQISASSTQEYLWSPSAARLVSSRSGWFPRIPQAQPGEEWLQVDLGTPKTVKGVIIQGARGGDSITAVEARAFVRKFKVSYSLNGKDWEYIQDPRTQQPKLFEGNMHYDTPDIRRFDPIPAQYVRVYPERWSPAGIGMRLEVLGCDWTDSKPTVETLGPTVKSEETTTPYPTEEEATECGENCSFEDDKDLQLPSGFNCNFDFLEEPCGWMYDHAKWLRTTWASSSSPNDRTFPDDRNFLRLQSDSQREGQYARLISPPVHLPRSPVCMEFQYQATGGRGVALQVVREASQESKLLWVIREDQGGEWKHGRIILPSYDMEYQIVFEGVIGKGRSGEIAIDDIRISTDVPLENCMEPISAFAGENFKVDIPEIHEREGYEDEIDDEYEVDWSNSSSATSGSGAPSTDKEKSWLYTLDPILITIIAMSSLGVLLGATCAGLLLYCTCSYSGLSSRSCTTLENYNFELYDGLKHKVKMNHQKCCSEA

[5] = Stability in human serum assessed as parent compound remaining measured after 12 hrs by LC-SWATH-MS analysis; type: ADME, cell-free; details: read-out: Stability
MDA-MB-231 [6] = experiment: Increase in NRP-1 expression in human MDA-MB-231 cell membrane at 7.2 uM preincubated for 15 mins at 4 degC followed by compound washout and further incubated for 60 mins with subsequent addition of compound at 37 degC by FITC-streptavidin staining based flow cytometry analysis; type: functional; details: time 75.0 min
[7] = target: VEGFR1-VEGA (Homo sapiens) (UniProt P15692+P17948); experiment: Inhibition of human biotinylated-VEGFA165 binding to recombinant human VEGFR1 measured after 2 hrs by chemiluminescent based ELISA; type: protein-complex assay
Homo sapiens = species: Homo sapiens; experiment: Selectivity ratio of IC50 for inhibition of human biotinylated-VEGFA165 binding to recombinant human NRP-1 to IC50 for inhibition of human biotinylated-VEGFA165 binding to recombinant human NRP-2
[8] = Half-life in human serum by LC-SWATH-MS analysis; type: ADME, cell-free
MDA-MB-231 [9] = experiment: Increase in NRP-1 expression in human MDA-MB-231 cell membrane at 72 uM preincubated for 15 mins at 4 degC followed by compound washout and further incubated for 60 mins with subsequent addition of compound at 37 degC by FITC-streptavidin staining based flow cytometry analysis; type: functional; details: time 75.0 min
[10] = Stability in human serum assessed as compound degradation measured upto 96 hrs by LC-SWATH-MS analysis; type: ADME, cell-free

VEGA-NRP1, sequence (O14786 whole entry, one chain of several): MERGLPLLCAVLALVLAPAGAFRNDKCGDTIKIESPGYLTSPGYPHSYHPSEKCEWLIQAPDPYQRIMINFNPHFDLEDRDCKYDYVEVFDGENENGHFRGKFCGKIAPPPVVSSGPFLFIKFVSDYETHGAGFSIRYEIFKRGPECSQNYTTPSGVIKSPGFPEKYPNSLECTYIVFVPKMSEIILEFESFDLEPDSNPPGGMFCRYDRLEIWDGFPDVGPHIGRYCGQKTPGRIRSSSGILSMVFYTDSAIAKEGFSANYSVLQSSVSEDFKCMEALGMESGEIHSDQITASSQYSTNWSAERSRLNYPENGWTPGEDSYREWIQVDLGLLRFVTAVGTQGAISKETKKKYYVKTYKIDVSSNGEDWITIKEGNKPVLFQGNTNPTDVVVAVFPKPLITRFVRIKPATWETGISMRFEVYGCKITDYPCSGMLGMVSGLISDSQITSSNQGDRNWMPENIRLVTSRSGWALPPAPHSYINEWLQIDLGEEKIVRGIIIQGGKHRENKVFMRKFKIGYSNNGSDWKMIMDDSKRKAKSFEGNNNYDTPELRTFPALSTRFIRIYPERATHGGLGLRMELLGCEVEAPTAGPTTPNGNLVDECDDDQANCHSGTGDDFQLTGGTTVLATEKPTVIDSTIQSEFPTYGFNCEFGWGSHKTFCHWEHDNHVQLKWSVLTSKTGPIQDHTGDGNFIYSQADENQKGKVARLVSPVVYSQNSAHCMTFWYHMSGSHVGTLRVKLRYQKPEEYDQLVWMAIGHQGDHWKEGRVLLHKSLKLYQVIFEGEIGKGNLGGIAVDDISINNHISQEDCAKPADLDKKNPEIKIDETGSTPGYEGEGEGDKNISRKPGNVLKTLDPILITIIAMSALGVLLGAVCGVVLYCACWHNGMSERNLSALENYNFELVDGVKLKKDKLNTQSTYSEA

SMILES	remaining at 24 h [1] [%]	remaining at 8 h [2] [%]	IC50 (VEGA-NRP1) [nM]	Activity (MDA-MB-231 [3])	inhibition [4]	pIC50 (NRP2-VEGA)	IC50 (NRP2-VEGA; read-out: pIC50 (converted)) [nM]	remaining at 12 h [5] [%]	Activity (MDA-MB-231 [6])	pIC50 (VEGA-NRP1)	inhibition [7]	Ratio IC50 (Homo sapiens)	half-life [8] [h]	Activity (MDA-MB-231 [9])	Stability [10]
N=C(N)NCCCC[C@H](N)C(=O)NCC[C@H](N)C(=O)N[C@@H](CCN)C(=O)N1C2CCCCC2C[C@H]1C(=O)N[C@@H](CCCNC(=N)N)C(=O)O (some centres not stated) (HELM PEPTIDE1{[Dab].[Dab].[O=C([C@@H]1CC2CCCCC2N1[*:1])[*:2]].R}|PEPTIDE2{[N=C(N)NCCCC[C@H](N)C(=O)[*:2]]}$PEPTIDE1,PEPTIDE2,1:R3-1:R2$$$V2.0)	0	56	2240												
N=C(N)NCCCC[C@H](N)C(=O)NCCCC[C@H](NC(=O)[C@@H](N)CS)C(=O)N[C@@H](CCN)C(=O)N1C2CCCCC2C[C@H]1C(=O)N[C@@H](CCCNC(=N)N)C(=O)O (some centres not stated) (HELM PEPTIDE1{C.K.[Dab].[O=C([C@@H]1CC2CCCCC2N1[*:1])[*:2]].R}|PEPTIDE2{[N=C(N)NCCCC[C@H](N)C(=O)[*:2]]}$PEPTIDE1,PEPTIDE2,2:R3-1:R2$$$V2.0)			43.1	Active	inactive	7.37	475	61	Active	7.41	inactive	5	~8	Active	Unstable
N=C(N)NCCCC[C@H](NC(=O)[C@@H](N)CS)C(=O)NCCCC[C@H](N)C(=O)N[C@@H](CCN)C(=O)N1C2CCCCC2C[C@H]1C(=O)N[C@@H](CCCNC(=N)N)C(=O)O (some centres not stated) (HELM PEPTIDE1{K.[Dab].[O=C([C@@H]1CC2CCCCC2N1[*:1])[*:2]].R}|PEPTIDE2{C.[N=C(N)NCCCC[C@H](N[*:1])C(=O)[*:2]]}$PEPTIDE1,PEPTIDE2,1:R3-2:R2$$$V2.0)		47		Active	inactive	8.05			Active	7.34	inactive	5	< 8	Active	Unstable
